Measured values as given in ChEMBL document CHEMBL1268875, “Isoflavone derivatives inhibit NF-κB-dependent transcriptional activity” (Bioorg Med Chem Lett, 2010).
The source made the active and inactive calls. No cut-off for these calls is given here.

These molecules were tested on HCT-116 (assay: Inhibition of TNF-alpha-induced Nuclear factor-kappa-B dependent transcriptional activity in human HCT116 cells assessed normalized inhibitory ratio of at 10 uM for 12 hrs by NF-kappaB cis-acting luciferase reporter gene assay relative to untreated control).
Assay type: cell-based
COc1ccc(-c2coc3c(OC)c(OC)ccc3c2=O)cc1 showed a Ratio of 0.95.
For Cc1c(O)ccc2c(=O)c(-c3ccccc3)coc12, the Ratio was 0.45.
In the case of COc1cc(OC)c2c(=O)c(-c3ccc(OC)c(OC)c3)coc2c1, the Ratio is reported as 0.19.
COc1ccc2c(=O)c(-c3ccc(OC)c(OC)c3)coc2c1 gave a Ratio of 0.45.
COc1ccc2c(=O)c(-c3ccccc3)coc2c1 showed a Ratio of 0.36.
COc1ccc(-c2coc3cc(OC)c(Cl)cc3c2=O)cc1O showed a Ratio of 0.54.
COc1ccc(-c2coc3c(C)c(OC)ccc3c2=O)cc1 was tested, and the Ratio was 0.62.
COc1ccc2c(=O)c(-c3ccccc3)coc2c1C showed a Ratio of 0.23.
Molecule COc1cc2occ(-c3ccccc3Cl)c(=O)c2cc1Cl has a Ratio of 0.54.
COc1ccc(-c2coc3cc(O)c(OC)cc3c2=O)cc1 gave a Ratio of 2.37.
With COc1cc(O)c2c(=O)c(-c3ccc(O)cc3)coc2c1 the Ratio was 0.34.
Work on COc1cc(OC)c2c(=O)c(-c3ccc(Br)cc3)coc2c1 yielded a Ratio of 0.25.
In the case of COc1cc(OC)c2c(=O)c(-c3ccccc3Cl)coc2c1, the Ratio is reported as 0.54.
Molecule COc1cc(OC)c2c(=O)c(-c3ccc(Cl)cc3)coc2c1 has a Ratio of 0.61.
With COc1ccc2c(=O)c(-c3ccc(Cl)cc3)coc2c1C the Ratio was 0.63.
With COc1cc(OC)c2c(=O)c(-c3cccc(Cl)c3)coc2c1 the Ratio was 0.63.
COc1cc(C)c2c(=O)c(-c3ccccc3)coc2c1 showed a Ratio of 0.67.
Cc1cc2occ(-c3ccccc3)c(=O)c2cc1Cl showed a Ratio of 0.32.
COc1ccc(-c2coc3cc(O)ccc3c2=O)cc1OC showed a Ratio of 2.53.
Molecule Cc1cc2occ(-c3ccc(Cl)cc3Cl)c(=O)c2cc1Cl has a Ratio of 0.27.
O=c1c(-c2ccc(O)cc2)coc2c(O)c(O)ccc12 was tested, and the Ratio was 1.22.
For Cc1c(O)ccc2c(=O)c(-c3ccc(Cl)cc3)coc12, the Ratio was 1.04.
COc1ccc(-c2coc3cc(OC)c(OC)cc3c2=O)cc1OC gave a Ratio of 0.4.

These molecules were tested on HCT-116 (assay: Inhibition of TNF-alpha-induced Nuclear factor-kappa-B-mediated CIAP2 expression in human HCT116 cells pretreated for 30 mins before stimulation with TNFalpha for 15 mins by RT-PCR).
Assay type: cell-based
For COc1cc(OC)c2c(=O)c(-c3ccc(OC)c(OC)c3)coc2c1, the inhibition was “Active”.

Each molecule was assayed on HCT-116 (assay: Inhibition of TNF-alpha-induced Nuclear factor-kappa-B-mediated XIAP expression in human HCT116 cells pretreated for 30 mins before stimulation with TNFalpha for 15 mins by RT-PCR).
Assay type: cell-based
For COc1cc(OC)c2c(=O)c(-c3ccc(OC)c(OC)c3)coc2c1, the inhibition was “Active”.

What follows are molecules tested on HCT-116 (assay: Inhibition of TNF-alpha-induced nuclear translocation of Nuclear factor-kappa-B in human HCT116 cells pretreated for 30 mins before stimulation with TNFalpha for 30 mins by Western blot).
Assay type: cell-based
COc1cc(OC)c2c(=O)c(-c3ccc(OC)c(OC)c3)coc2c1 was tested, and the inhibition was “Active”.

The molecules below were run on HCT-116 (assay: Inhibition of TNF-alpha-induced Nuclear factor-kappa-B-mediated CXCL1 expression in human HCT116 cells pretreated for 30 mins before stimulation with TNFalpha for 15 mins by RT-PCR).
Assay type: cell-based
For COc1cc(OC)c2c(=O)c(-c3ccc(OC)c(OC)c3)coc2c1, the inhibition was “Active”.
